From the NIST ThermoML archive (doi:10.1016/j.jct.2016.06.017)
± gives the expanded uncertainty stated by the source.

How the values were obtained:
[1] = 100 kPa, Liquid, Frequency=0.01 MHz, Alternating current cell with electrodes
[2] = xn = mol fraction of the nth substance listed; conditions: 100 kPa, Liquid, Frequency=0.01 MHz, Alternating current cell with electrodes

CCCCn1cc[n+](C)c1.N#CN=C=[N-] [1-butyl-3-methylimidazolium dicyanamide]
electrical conductivity ([1]; 273.15 K): 0.383 ± 0.004 S/m
electrical conductivity ([1]; 283.15 K): 0.636 ± 0.006 S/m
electrical conductivity ([1]; 293.15 K): 0.972 ± 0.01 S/m
electrical conductivity ([1]; 298.15 K): 1.17 ± 0.012 S/m
electrical conductivity ([1]; 303.15 K): 1.39 ± 0.014 S/m
electrical conductivity ([1]; 313.15 K): 1.89 ± 0.019 S/m
electrical conductivity ([1]; 323.15 K): 2.46 ± 0.025 S/m

CCCCn1cc[n+](C)c1.N#CN=C=[N-] [1-butyl-3-methylimidazolium dicyanamide] + O=C1CCCO1
electrical conductivity ([2]; 273.15 K, x1 = 1): 0.383 ± 0.004 S/m
electrical conductivity ([2]; 283.15 K, x1 = 1): 0.636 ± 0.006 S/m
electrical conductivity ([2]; 293.15 K, x1 = 1): 0.972 ± 0.01 S/m
electrical conductivity ([2]; 298.15 K, x1 = 1): 1.17 ± 0.012 S/m
electrical conductivity ([2]; 303.15 K, x1 = 1): 1.39 ± 0.014 S/m
electrical conductivity ([2]; 313.15 K, x1 = 1): 1.89 ± 0.019 S/m
electrical conductivity ([2]; 323.15 K, x1 = 1): 2.46 ± 0.025 S/m

O=C1CCCO1 [γ-butyrolactone] + CCCCn1cc[n+](C)c1.N#CN=C=[N-]
electrical conductivity ([2]; 273.15 K, x2 = 0.0504): 1.05 ± 0.015 S/m
electrical conductivity ([2]; 273.15 K, x2 = 0.1002): 1.4 ± 0.015 S/m
electrical conductivity ([2]; 273.15 K, x2 = 0.2002): 1.518 ± 0.015 S/m
electrical conductivity ([2]; 273.15 K, x2 = 0.2984): 1.35 ± 0.014 S/m
electrical conductivity ([2]; 273.15 K, x2 = 0.4005): 1.13 ± 0.012 S/m
electrical conductivity ([2]; 273.15 K, x2 = 0.4954): 0.924 ± 0.01 S/m
electrical conductivity ([2]; 273.15 K, x2 = 0.6957): 0.639 ± 0.007 S/m
electrical conductivity ([2]; 273.15 K, x2 = 0.8871): 0.454 ± 0.005 S/m
electrical conductivity ([2]; 283.15 K, x2 = 0.0504): 1.27 ± 0.018 S/m
electrical conductivity ([2]; 283.15 K, x2 = 0.1002): 1.71 ± 0.018 S/m
electrical conductivity ([2]; 283.15 K, x2 = 0.2002): 1.918 ± 0.019 S/m
electrical conductivity ([2]; 283.15 K, x2 = 0.2984): 1.77 ± 0.018 S/m
electrical conductivity ([2]; 283.15 K, x2 = 0.4005): 1.54 ± 0.016 S/m
electrical conductivity ([2]; 283.15 K, x2 = 0.4954): 1.32 ± 0.014 S/m
electrical conductivity ([2]; 283.15 K, x2 = 0.6957): 0.968 ± 0.01 S/m
electrical conductivity ([2]; 283.15 K, x2 = 0.8871): 0.736 ± 0.008 S/m
electrical conductivity ([2]; 293.15 K, x2 = 0.0504): 1.5 ± 0.022 S/m
electrical conductivity ([2]; 293.15 K, x2 = 0.1002): 2.03 ± 0.022 S/m
electrical conductivity ([2]; 293.15 K, x2 = 0.2002): 2.35 ± 0.024 S/m
electrical conductivity ([2]; 293.15 K, x2 = 0.2984): 2.24 ± 0.023 S/m
electrical conductivity ([2]; 293.15 K, x2 = 0.4005): 2.012 ± 0.02 S/m
electrical conductivity ([2]; 293.15 K, x2 = 0.4954): 1.78 ± 0.018 S/m
electrical conductivity ([2]; 293.15 K, x2 = 0.6957): 1.37 ± 0.014 S/m
electrical conductivity ([2]; 293.15 K, x2 = 0.8871): 1.09 ± 0.011 S/m
electrical conductivity ([2]; 298.15 K, x2 = 0.0504): 1.62 ± 0.024 S/m
electrical conductivity ([2]; 298.15 K, x2 = 0.1002): 2.2 ± 0.024 S/m
electrical conductivity ([2]; 298.15 K, x2 = 0.2002): 2.58 ± 0.026 S/m
electrical conductivity ([2]; 298.15 K, x2 = 0.2984): 2.49 ± 0.025 S/m
electrical conductivity ([2]; 298.15 K, x2 = 0.4005): 2.27 ± 0.023 S/m
electrical conductivity ([2]; 298.15 K, x2 = 0.4954): 2.03 ± 0.021 S/m
electrical conductivity ([2]; 298.15 K, x2 = 0.6957): 1.606 ± 0.016 S/m
electrical conductivity ([2]; 298.15 K, x2 = 0.8871): 1.3 ± 0.013 S/m
electrical conductivity ([2]; 303.15 K, x2 = 0.0504): 1.74 ± 0.026 S/m
electrical conductivity ([2]; 303.15 K, x2 = 0.1002): 2.38 ± 0.026 S/m
electrical conductivity ([2]; 303.15 K, x2 = 0.2002): 2.814 ± 0.028 S/m
electrical conductivity ([2]; 303.15 K, x2 = 0.2984): 2.75 ± 0.028 S/m
electrical conductivity ([2]; 303.15 K, x2 = 0.4005): 2.53 ± 0.026 S/m
electrical conductivity ([2]; 303.15 K, x2 = 0.4954): 2.29 ± 0.023 S/m
electrical conductivity ([2]; 303.15 K, x2 = 0.6957): 1.85 ± 0.019 S/m
electrical conductivity ([2]; 303.15 K, x2 = 0.8871): 1.53 ± 0.016 S/m
electrical conductivity ([2]; 313.15 K, x2 = 0.0504): 1.98 ± 0.03 S/m
electrical conductivity ([2]; 313.15 K, x2 = 0.1002): 2.73 ± 0.03 S/m
electrical conductivity ([2]; 313.15 K, x2 = 0.2002): 3.301 ± 0.033 S/m
electrical conductivity ([2]; 313.15 K, x2 = 0.2984): 3.29 ± 0.033 S/m
electrical conductivity ([2]; 313.15 K, x2 = 0.4005): 3.101 ± 0.031 S/m
electrical conductivity ([2]; 313.15 K, x2 = 0.4954): 2.87 ± 0.029 S/m
electrical conductivity ([2]; 313.15 K, x2 = 0.6957): 2.401 ± 0.024 S/m
electrical conductivity ([2]; 313.15 K, x2 = 0.8871): 2.04 ± 0.021 S/m
electrical conductivity ([2]; 323.15 K, x2 = 0.0504): 2.23 ± 0.034 S/m
electrical conductivity ([2]; 323.15 K, x2 = 0.1002): 3.09 ± 0.034 S/m
electrical conductivity ([2]; 323.15 K, x2 = 0.2002): 3.81 ± 0.039 S/m
electrical conductivity ([2]; 323.15 K, x2 = 0.2984): 3.87 ± 0.039 S/m
electrical conductivity ([2]; 323.15 K, x2 = 0.4005): 3.707 ± 0.037 S/m
electrical conductivity ([2]; 323.15 K, x2 = 0.4954): 3.48 ± 0.035 S/m
electrical conductivity ([2]; 323.15 K, x2 = 0.6957): 3.009 ± 0.03 S/m
electrical conductivity ([2]; 323.15 K, x2 = 0.8871): 2.625 ± 0.026 S/m
